Measured values from patent US6383766B1, “Reduced cortisol conjugates” (Ortho-Clinical Diagnostics, Inc., priority 1998, dated 2002).

Assays:
anti-cortisol antibody = conditions: prior art commercial cortisol assays; cited from earlier work
[1] = system: biotinylated sheep anti-cortisol gamma globulin (anti-cortisol antibody); assay: VITROS ECi chemiluminescence competitive immunoassay, cross-reactivity (50% displacement of HRP-labeled conjugate); type: binding; conditions: cortisol conc. displacing 50% / cross-reactant conc. displacing 50% x 100; for Percent Cross-Reactivity, HRP-RC Invention Label: HRP labeled reduced cortisol-3-CMO-BSA (HRP-RC) as label; for Percent Cross-Reactivity, HRP-NRC Comparative Label: comparative HRP labeled nonreduced cortisol conjugate (HRP-NRC) as label
Description: Evaluation of the HRP labeled reduced cortisol-3-CMO-BSA (hereinafter referred to as HRP-RC conjugate) was evaluated using an Ortho-Clinical Diagnostic VITROS ECi chemiluminesence-based assay methodology.
100 ng/mL reduced cortisol-3-CMO-BSA-HRP (or 20 ng/mL of a comparative HRP-cortisol conjugate label, which is not a conjugate label of the present invention, but which was carried through the same procedures as the label of the invention except for the reduction step)
1.5 μg/mL biotinylated sheep anti-cortisol gamma globulin
An aliquot (75 μL) of anti-cortisol biotinylated sheep antibody, 30 μL of sample, serum comprising cortisol or a steroid structurally similar to cortisol (below), and 75 μL of HRP-RC conjugate were added to an VITROS ECi sample container to which strepavidin had been prebound. The solution was incubated at 37° C. for 30 minutes, then washed using the above-indicated wash reagent.
A 200 μL aliquot of the above-indicated signal reagent solution (100 μL of part A and 100 μL of part B combined just prior to use) was then added to the sample container. The solution was incubated for 5 minutes at 37° C., and the chemiluminesence intensity was then determined.
The above method was used to determine the concentration of potential cross reactant (steroid that is structurally similar to cortisol: 11-deoxycortisol, prednisolone, corticosterone and cortisone) that displaced fifty percent of a fixed amount of a comparative HRP labeled cortisol conjugate (nonreduced cortisol, HRP-NRC) or HRP-RC conjugate bound to a fixed amount of anti-cortisol antibody.
Varied levels of the potential cross reactant were added to sample containers containing either the comparative labeled cortisol conjugate (nonreduced cortisol, HRP-NRC) or HRP-RC conjugate of the instant invention, as described above.
The concentration of cross reactant resulting in a light signal measurement corresponding to 50% of the maximum attainable (all conjugate displaced) was determined and used to calculate the percent cross reactivity as described below and whose results are listed in Table 1.
Percent cross-reactivity is defined as The concentration of cortisol that displaced 50% of the HRP-NRC comparative conjugate (or the HRP-RC conjugate) divided by the concentration of cross-reactant that displaced 50% of the HRP-NRC comparative conjugate (or the HRP-RC conjugate) multiplied by 100 as determined per the assay method described hereinabove.

Percent Cross-Reactivity, HRP-RC Invention Label [1] [%]	Percent Cross-Reactivity, HRP-NRC Comparative Label [1] [%]	Structure (SMILES)	cross-reactivity in commercial cortisol assays (anti-cortisol antibody)
2.2	28.4	C[C@]12CCC(=O)C=C1CC[C@@H]1[C@@H]2CC[C@@]2(C)[C@H]1CC[C@]2(O)C(=O)CO [11-deoxycortisol]	greater than 10%
3.3	4.4	C[C@]12C[C@H](O)[C@H]3[C@@H](CCC4=CC(=O)CC[C@@]43C)[C@@H]1CC[C@@H]2C(=O)CO [corticosterone]	
100	100	C[C@]12CCC(=O)C=C1CC[C@@H]1[C@@H]2[C@@H](O)C[C@@]2(C)[C@H]1CC[C@]2(O)C(=O)CO [cortisol]	
1.8	5.5	C[C@]12CCC(=O)C=C1CC[C@@H]1[C@@H]2C(=O)C[C@@]2(C)[C@H]1CC[C@]2(O)C(=O)CO [cortisone]	
24.6	34.8	C[C@]12C=CC(=O)C=C1CC[C@@H]1[C@@H]2[C@@H](O)C[C@@]2(C)[C@H]1CC[C@]2(O)C(=O)CO [prednisolone]	
